The record followed here is patent US12686665B2, “Bicyclic fused ring derivative or salt thereof and pharmaceutical composition comprising same” (YUHAN CORPORATION, priority 2021, dated 2026).

What all share (assay type): biochemical
The target in test [1] is T1, recombinant human MAO-B (monoamine oxidase-B) (Homo sapiens, UniProt P27338).
T1 construct: purchased Sigma-Aldrich
T1 sequence (P27338 1-520): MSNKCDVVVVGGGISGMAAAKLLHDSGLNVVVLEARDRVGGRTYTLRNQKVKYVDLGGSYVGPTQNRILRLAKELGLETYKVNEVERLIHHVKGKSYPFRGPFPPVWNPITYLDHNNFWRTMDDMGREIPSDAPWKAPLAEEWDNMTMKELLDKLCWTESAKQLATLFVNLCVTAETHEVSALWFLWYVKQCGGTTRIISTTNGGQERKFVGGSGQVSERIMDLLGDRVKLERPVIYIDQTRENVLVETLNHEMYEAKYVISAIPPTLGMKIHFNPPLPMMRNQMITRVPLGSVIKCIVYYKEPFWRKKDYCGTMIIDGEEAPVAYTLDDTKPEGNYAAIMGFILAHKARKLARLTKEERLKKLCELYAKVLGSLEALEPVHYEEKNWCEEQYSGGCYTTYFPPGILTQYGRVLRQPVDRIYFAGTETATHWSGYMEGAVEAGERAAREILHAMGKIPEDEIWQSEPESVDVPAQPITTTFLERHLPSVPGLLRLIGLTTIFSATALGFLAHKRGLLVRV
Briefly: Amplex Red HRP-coupled amine oxidase assay, recombinant human MAO-B. The note with it: 1 mM benzylamine substrate, read-out: Inhibitory activity (IC50, nM) MAO-B. As for the experimental part: (§1) The activities of the compounds according to the present invention against recombinant human Lysyl Oxidase-Like 2 (recombinant human LOXL2, R&D systems) were evaluated by measuring the levels of hydrogen peroxide in the HRP (horseradish peroxidase) coupled reactions, with the Amplex Red Hydrogen Peroxide Assay Kit (Molecular Probes, Invitrogen, USA). The tests were carried out at 37° C., and putrescine was used as a substrate. In the HRP coupling reaction, the oxidation of 10-acetyl-3,7-dihydroxyphenoxazine (Amplex Red reagent) by hydrogen peroxide generates a fluorescent product, i.e., resorufin. Briefly, the test compounds were dissolved in dimethyl sulfoxide (DMSO) at a concentration of 20 mM. Dose-response measurements were carried out by serial dilutions in DMSO to generate a six-point curve. The upper concentration was adjusted according to the potency of the compound, and then diluted with the reaction buffer to obtain a final DMSO concentration of 1%. Purified human LOXL2 in 50 mM sodium phosphate buffer (pH7.4) was added to each well of a 96 well black plate. The test compounds dissolved in DMSO were incubated with the human LOXL2 enzyme at 37° C. for 60 minutes. After the incubation for 60 minutes, a reaction mixture containing 400 μM Amplex Red reagent, 30 mM putrescine, and 2 U/mL HRP in 50 mM sodium phosphate buffer (pH 7.4) was added to each well. Fluorescence was measured with a microplate reader (Flexstation3, Molecular Devices), under the conditions of excitation at 530 nm and emission at 590 nm, 1 hour after the addition of the mixture. Inhibition by each compound was measured as % reduction in signal, compared to the control without an inhibitor (diluted DMSO only). The data were fixed to a four-variable logistic model, and […] values were calculated using the GraphPad Prism program.
(§2) And, the activities of the compounds according to the present invention against recombinant human MAO-A (monoamine oxidase-A, Sigma-Aldrich) and recombinant human MAO-B (monoamine oxidase-B, Sigma-Aldrich) were evaluated in a similar manner to the activity evaluation method for recombinant human LOXL2, using 0.5 mM tyramine and 1 mM benzylamine as a substrate, respectively. In addition, the activities of the compounds according to the present invention against recombinant human DAO (diamine oxidase, R&D systems) were evaluated in a similar manner to the activity evaluation method for recombinant human LOXL2, using 1 mM putrescine as a substrate.

In test [2] the target is T2, recombinant human Lysyl Oxidase-Like 2 (LOXL2) (Homo sapiens, UniProt Q9Y4K0).
T2 construct: purchased R&D systems
T2 sequence (Q9Y4K0 26-774): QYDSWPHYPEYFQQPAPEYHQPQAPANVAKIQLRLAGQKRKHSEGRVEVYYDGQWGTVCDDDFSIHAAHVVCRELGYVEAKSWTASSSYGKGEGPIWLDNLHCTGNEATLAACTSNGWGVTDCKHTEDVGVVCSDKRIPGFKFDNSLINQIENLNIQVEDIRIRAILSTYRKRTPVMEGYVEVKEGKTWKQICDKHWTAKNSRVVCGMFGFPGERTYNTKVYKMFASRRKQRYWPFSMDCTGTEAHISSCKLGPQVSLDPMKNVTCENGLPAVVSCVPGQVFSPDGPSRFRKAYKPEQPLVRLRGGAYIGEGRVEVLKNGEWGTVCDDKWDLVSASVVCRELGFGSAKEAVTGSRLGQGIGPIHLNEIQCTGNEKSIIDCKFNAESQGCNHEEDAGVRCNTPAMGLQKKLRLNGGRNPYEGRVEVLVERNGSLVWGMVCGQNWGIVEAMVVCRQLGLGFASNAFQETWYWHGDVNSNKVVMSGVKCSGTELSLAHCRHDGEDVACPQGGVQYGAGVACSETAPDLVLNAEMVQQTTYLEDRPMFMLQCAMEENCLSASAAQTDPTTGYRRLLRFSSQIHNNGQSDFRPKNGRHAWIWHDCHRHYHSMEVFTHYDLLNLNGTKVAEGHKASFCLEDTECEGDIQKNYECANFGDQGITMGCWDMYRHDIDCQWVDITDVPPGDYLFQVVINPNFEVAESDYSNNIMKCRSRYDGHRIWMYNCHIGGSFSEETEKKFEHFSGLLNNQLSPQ
Kind of test: Amplex Red HRP-coupled amine oxidase assay, recombinant human LOXL2. The note with it: 60 min incubation with enzyme at 37° C., putrescine substrate, read-out: Inhibitory activity (IC50, nM) human LOXL2. Put shortly:
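Putrescine substrate (30 mM) in 50 mM sodium phosphate pH 7.4, 37 °C; compounds preincubated 60 min with enzyme, 1% DMSO final, six-point curves. H2O2 detected via 400 μM Amplex Red/2 U/mL HRP, fluorescence (ex 530/em 590 nm) after 1 h; IC50 from four-parameter logistic fit of % signal reduction.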

The target in test [3] is T3, recombinant human DAO (diamine oxidase) (Homo sapiens, UniProt P19801).
T3 construct: purchased R&D systems
T3 sequence (P19801 20-751): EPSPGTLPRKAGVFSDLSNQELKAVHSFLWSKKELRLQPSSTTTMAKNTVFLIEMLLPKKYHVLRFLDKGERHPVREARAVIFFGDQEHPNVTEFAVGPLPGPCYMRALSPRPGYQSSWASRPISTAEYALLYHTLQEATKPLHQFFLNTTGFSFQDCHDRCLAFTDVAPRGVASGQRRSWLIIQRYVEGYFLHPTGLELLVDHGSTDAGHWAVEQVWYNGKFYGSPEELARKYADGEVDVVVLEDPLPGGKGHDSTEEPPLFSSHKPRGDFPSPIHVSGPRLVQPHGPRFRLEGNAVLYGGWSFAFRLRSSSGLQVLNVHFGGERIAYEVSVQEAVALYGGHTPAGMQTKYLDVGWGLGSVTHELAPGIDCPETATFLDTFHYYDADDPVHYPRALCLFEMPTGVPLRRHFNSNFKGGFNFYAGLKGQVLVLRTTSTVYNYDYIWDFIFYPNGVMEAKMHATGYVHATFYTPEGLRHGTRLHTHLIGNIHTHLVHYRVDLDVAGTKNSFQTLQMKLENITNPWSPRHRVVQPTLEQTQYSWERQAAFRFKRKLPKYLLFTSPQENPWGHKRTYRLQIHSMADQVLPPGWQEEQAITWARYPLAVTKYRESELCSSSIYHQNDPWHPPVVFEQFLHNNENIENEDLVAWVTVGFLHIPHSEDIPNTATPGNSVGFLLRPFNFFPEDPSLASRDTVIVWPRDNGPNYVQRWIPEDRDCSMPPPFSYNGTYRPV
Briefly: Amplex Red HRP-coupled amine oxidase assay, recombinant human DAO. Particulars: 1 mM putrescine substrate, read-out: Inhibitory activity (IC50, nM) DAO. The procedure:
as §1, §2

In test [4] the target is T4, recombinant human MAO-A (monoamine oxidase-A) (Homo sapiens, UniProt P21397).
T4 construct: purchased Sigma-Aldrich
T4 sequence (P21397 1-527): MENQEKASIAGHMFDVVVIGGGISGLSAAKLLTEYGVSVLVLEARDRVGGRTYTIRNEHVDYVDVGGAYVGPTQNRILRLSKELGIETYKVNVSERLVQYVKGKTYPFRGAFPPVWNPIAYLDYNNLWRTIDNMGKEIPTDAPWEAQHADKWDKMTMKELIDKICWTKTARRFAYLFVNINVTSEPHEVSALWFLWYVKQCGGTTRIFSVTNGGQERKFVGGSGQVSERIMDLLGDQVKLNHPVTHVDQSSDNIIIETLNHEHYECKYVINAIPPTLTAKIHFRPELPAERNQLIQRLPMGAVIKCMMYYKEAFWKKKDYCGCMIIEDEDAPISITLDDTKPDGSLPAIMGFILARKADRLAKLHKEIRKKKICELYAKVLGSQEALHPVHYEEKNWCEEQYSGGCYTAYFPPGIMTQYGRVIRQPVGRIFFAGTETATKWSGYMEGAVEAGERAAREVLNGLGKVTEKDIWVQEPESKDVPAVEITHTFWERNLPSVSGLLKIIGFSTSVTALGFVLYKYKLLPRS
Briefly: Amplex Red HRP-coupled amine oxidase assay, recombinant human MAO-A. The note with it: 0.5 mM tyramine substrate, read-out: Inhibitory activity (IC50, nM) MAO-A. The procedure: as §1, §2

Where a name gives a salt, the structure may show the parent alone.

For the compound `COC(=O)c1cc(-c2cccc(S(=O)(=O)NC3CC3)c2)c2ncn(C/C(F)=C/CN)c2c1` [Example 29, methyl (Z)-1-(4-amino-2-fluorobut-2-en-1-yl)-4-(3-(N-cyclopropylsulfamoyl)phenyl)-1H-benzo[d]imidazol-6-carboxylate hydrochloride], the concentration for half-maximal inhibition (IC50) in test [1] was above 100000 nM; in test [2], 34.9 nM; in test [3], 1370 nM; in test [4], above 100000 nM.

Take `CC(=O)c1ccc(F)c(-c2cc(C(F)(F)F)cc3c2ncn3C/C(F)=C/CN)c1` [Example 169, (Z)-1-(3-(1-(4-amino-2-fluorobut-2-en-1-yl)-6-(trifluoromethyl)-1H-benzo[d]imidazol-4-yl)-4-fluorophenyl)ethan-1-one hydrochloride]: the 50% inhibitory concentration (IC50) in test [1] is above 100000 nM; in test [2] it was 273 nM; in test [3], 5400 nM; in test [4] it was 26900 nM.

For `COC(=O)c1cc(-c2cccc(S(=O)(=O)N3CCCC3)c2)c2ncn(C/C(F)=C/CN)c2c1` [Example 23, methyl (Z)-1-(4-amino-2-fluorobut-2-en-1-yl)-4-(3-(pyrrolidin-1-ylsulfonyl)phenyl)-1H-benzo[d]imidazol-6-carboxylate hydrochloride], the half-maximal inhibitory concentration (IC50) in test [1] is above 100000 nM; in test [2], 16.7 nM; in test [3] it was 986 nM; in test [4] it was above 100000 nM.

As to `NC/C=C(\F)Cn1cnc2c(-c3cccc(S(=O)(=O)N4CCCC4)c3)cc(F)cc21` [Example 7, (Z)-3-fluoro-4-(6-fluoro-4-(3-(pyrrolidin-1-ylsulfonyl)phenyl)-1H-benzo[d]imidazol-1-yl)but-2-en-1-amine hydrochloride], the IC50 in test [1] is above 100000 nM; in test [2] it was 35 nM; in test [3], 2410 nM; in test [4], 26500 nM.

Regarding `CNS(=O)(=O)c1cccc(-c2cc(C(=O)OC)cc3c2nc(C)n3C/C(F)=C/CN)c1` [Example 73, methyl (Z)-1-(4-amino-2-fluorobut-2-en-1-yl)-2-methyl-4-(3-(N-methylsulfamoyl)phenyl)-1H-benzo[d]imidazol-6-carboxylate hydrochloride], the IC50 in test [1] was above 100000 nM; in test [2], 58 nM; in test [3], 1810 nM; in test [4], 47900 nM.

With `CCc1nc2c(-c3cccc(S(=O)(=O)N(C)C)c3)cccc2n1C/C(F)=C/CN` [Example 84, (Z)-3-(1-(4-amino-2-fluorobut-2-en-1-yl)-2-ethyl-1H-benzo[d]imidazol-4-yl)-N,N-dimethyl benzenesulfonamide hydrochloride], the concentration for half-maximal inhibition (IC50) in test [1] is above 100000 nM; in test [2] it was 65 nM; in test [3] it was 6690 nM; in test [4] it was 65000 nM.

As to `CN(C)S(=O)(=O)c1cccc(-c2cccc3c2nnn3C/C(F)=C/CN)c1` [Example 112, (Z)-3-(1-(4-amino-2-fluorobut-2-en-1-yl)-1H-benzo[d][1,2,3]triazol-4-yl)-N,N-dimethylbenzenesulfonamide hydrochloride], the half-maximal inhibitory concentration (IC50) was 26500 nM in test [1], 15 nM in test [2], 32100 nM in test [3] and above 100000 nM in test [4].

Consider `COC(=O)c1cc(-c2cccc(S(C)(=O)=O)c2)c2ncn(C/C(F)=C/CN)c2c1` [Example 25, methyl (Z)-1-(4-amino-2-fluorobut-2-en-1-yl)-4-(3-(methylsulfonyl)phenyl)-1H-benzo[d]imidazol-6-carboxylate hydrochloride], for which the IC50 was above 100000 nM in test [1], 22.7 nM in test [2], 1230 nM in test [3] and above 100000 nM in test [4].

For the compound `CNS(=O)(=O)c1cccc(-c2cc(C(F)(F)F)cc3c2ncn3C/C(F)=C/CN)c1` [Example 20, (Z)-3-(1-(4-amino-2-fluorobut-2-en-1-yl)-6-(trifluoromethyl)-1H-benzo[d]imidazol-4-yl)-N-methylbenzenesulfonamide hydrochloride], the IC50 was above 100000 nM in test [1], 77 nM in test [2], above 100000 nM in test [3] and above 100000 nM in test [4].

A word on the IC50: it is the concentration needed to halve the response being measured.
